Source: ChEMBL document CHEMBL4419173, “Small-molecule inhibitors targeting g-protein-coupled rho guanine nucleotide exchange factors” (2014)
Active and inactive are the calls of the source. The rule behind the calls is not given here.

Assays:
[1] = target: T1, Rho guanine nucleotide exchange factor 12 (Homo sapiens, UniProt Q9NZN5); assay: Inhibition of human LARG (765 to 1138 residues) RhoGEF-catalyzed guanine nucleotide-exchange reaction of human full length RhoA (1 to 193 residues) by measuring inhibition of TR-GTP association to RhoA by BODIPY-Texas Red(TR)-GTP nucleotide based assay
T1 sequence (Q9NZN5 whole entry, the tested form may be a part): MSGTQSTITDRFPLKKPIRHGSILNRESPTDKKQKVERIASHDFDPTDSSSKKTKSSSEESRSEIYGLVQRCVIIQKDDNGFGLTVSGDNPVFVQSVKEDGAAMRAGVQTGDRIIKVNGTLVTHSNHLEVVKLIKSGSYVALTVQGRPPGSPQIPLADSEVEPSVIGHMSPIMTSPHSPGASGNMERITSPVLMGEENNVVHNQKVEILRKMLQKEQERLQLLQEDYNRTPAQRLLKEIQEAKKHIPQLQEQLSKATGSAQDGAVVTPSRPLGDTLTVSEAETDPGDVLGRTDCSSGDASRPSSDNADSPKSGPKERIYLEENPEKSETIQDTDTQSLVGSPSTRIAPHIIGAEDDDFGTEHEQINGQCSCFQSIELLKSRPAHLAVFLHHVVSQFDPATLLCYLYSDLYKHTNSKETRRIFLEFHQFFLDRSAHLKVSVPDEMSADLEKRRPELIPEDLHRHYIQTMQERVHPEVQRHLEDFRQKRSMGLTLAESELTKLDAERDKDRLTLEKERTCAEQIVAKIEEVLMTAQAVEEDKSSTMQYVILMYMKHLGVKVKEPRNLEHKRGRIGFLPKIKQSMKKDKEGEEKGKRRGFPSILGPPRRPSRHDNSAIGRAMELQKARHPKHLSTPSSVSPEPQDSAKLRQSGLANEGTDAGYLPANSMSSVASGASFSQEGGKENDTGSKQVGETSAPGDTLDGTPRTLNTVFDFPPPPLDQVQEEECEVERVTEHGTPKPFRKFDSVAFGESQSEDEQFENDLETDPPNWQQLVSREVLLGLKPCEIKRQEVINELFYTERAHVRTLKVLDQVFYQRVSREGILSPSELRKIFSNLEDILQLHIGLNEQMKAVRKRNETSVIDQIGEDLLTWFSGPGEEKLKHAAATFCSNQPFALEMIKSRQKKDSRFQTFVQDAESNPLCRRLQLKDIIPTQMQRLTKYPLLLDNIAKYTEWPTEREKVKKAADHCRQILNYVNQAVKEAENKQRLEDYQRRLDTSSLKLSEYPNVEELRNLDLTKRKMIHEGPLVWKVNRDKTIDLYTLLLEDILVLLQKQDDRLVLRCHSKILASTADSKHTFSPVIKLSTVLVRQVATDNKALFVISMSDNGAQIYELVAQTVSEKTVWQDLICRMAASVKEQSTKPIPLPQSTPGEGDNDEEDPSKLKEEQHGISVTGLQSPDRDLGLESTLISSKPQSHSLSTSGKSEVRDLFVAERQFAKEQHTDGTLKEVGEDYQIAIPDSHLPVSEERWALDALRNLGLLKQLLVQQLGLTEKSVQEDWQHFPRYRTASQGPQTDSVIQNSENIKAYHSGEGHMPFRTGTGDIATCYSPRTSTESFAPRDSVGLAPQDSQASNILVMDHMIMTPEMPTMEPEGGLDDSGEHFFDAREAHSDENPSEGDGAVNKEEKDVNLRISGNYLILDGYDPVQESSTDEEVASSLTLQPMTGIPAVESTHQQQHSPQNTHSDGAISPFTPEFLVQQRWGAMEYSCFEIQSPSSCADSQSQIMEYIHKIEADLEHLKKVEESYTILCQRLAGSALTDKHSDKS

[2] = target: T1, Rho guanine nucleotide exchange factor 12; assay: Inhibition of human LARG (765 to 1138 residues) RhoGEF-catalyzed guanine nucleotide-exchange reaction of human full length RhoA (1 to 193 residues) by measuring inhibition of FL-GDP dissociation from RhoA by BODIPY-fluorescein(FL)-GDP nucleotide based assay
[3] = target: Rho GEF 12/Transforming protein RhoA (Homo sapiens) (UniProt P61586+Q9NZN5); assay: Inhibition of His6-tagged human LARG PH-DH domain expressed in mouse NIH/3T3 cells assessed as reduction in human full length GST-tagged RhoA (1 to 193 residues) interaction with LARG RhoGEF at 100 uM incubated for 1 hr by Western blot analysis relative to Y16; format: cell-based
[4] = test system: MCF7; assay: Inhibition of cell migration of human MCF7 cells at 10 to 50 uM; format: functional, cell-based
[5] = test system: MCF7; assay: Growth inhibition of human MCF7 cells at 5 to 50 uM; format: functional, cell-based
[6] = organism: Mus musculus; assay: Inhibition of RhoGEF in mouse NIH/3T3 cells assessed as inhibition of 10% calf serum-induced RhoA-GTP formation by measuring relative RhoA-GTP level at 30 uM incubated for 24 hrs by densitometry (reference value: 1); format: cell-based
[7] = target: T2, RhoGEF 1/Transforming protein RhoA (Homo sapiens) (UniProt P61586+Q92888); assay: Binding affinity to human LARG (765 to 1138 residues) DH-PH module expressed in mouse NIH/3T3 cells assessed as reduction in LARG binding to human full length RhoA (1 to 193 residues) by measuring relative LARG binding level at 50 uM pull-down assay (reference value: 1 No unit); format: cell-based
[8] = test system: MCF7; assay: Inhibition of RhoGEF in human MCF7 cells derived mammospheres assessed as inhibition of 10% calf serum-induced RhoA-GTP formation by measuring relative RhoA-GTP level incubated for 24 hrs by densitometry (reference value: 1); format: cell-based
[9] = test system: MCF7; assay: Inhibition of RhoGEF in human MCF7 cells derived mammospheres assessed as inhibition of 10% calf serum-induced RhoA-GTP formation by measuring relative RhoA-GTP level at 10 uM incubated for 24 hrs by densitometry (reference value: 1); format: cell-based
[10] = test system: MCF7; assay: Inhibition of RhoGEF in human MCF7 cells derived mammospheres assessed as inhibition of RhoA-mediated phospho-MLC formation at 10 uM incubated for 24 hrs by densitometry; format: cell-based
[11] = organism: Mus musculus; assay: Inhibition of RhoGEF in mouse NIH/3T3 cells assessed as inhibition of 10% calf serum-induced RhoA-GTP formation by measuring relative RhoA-GTP level at 10 uM incubated for 24 hrs by densitometry (reference value: 1); format: cell-based
[12] = organism: Mus musculus; assay: Inhibition of RhoGEF in mouse NIH/3T3 cells assessed as reduction in 10% calf serum-induced rhoA-mediated actin stress fiber formation at 10 uM by rhodamine-phalloidin staining based assay; format: cell-based
[13] = organism: Mus musculus; assay: Inhibition of RhoGEF in mouse NIH/3T3 cells assessed as inhibition of 10% calf serum-induced Rac1-GTP formation by measuring relative Rac1-GTP level at 50 uM incubated for 24 hrs by densitometry (reference value: 1); format: cell-based
[14] = target: T2, RhoGEF 1/Transforming protein RhoA (Homo sapiens); assay: Binding affinity to human LARG (765 to 1138 residues) DH-PH module expressed in mouse NIH/3T3 cells assessed as reduction in LARG binding to human full length RhoA (1 to 193 residues) by measuring relative LARG binding level at 5 uM pull-down assay (reference value: 1 No unit); format: cell-based
[15] = test system: MCF7; assay: Inhibition of cell invasion of human MCF7 cells at 10 to 50 uM by Matrigel-coated transwell based assay; format: functional
[16] = test system: MCF7; assay: Inhibition of RhoGEF in human MCF7 cells derived mammospheres assessed as inhibition of 10% calf serum-induced RhoA-GTP formation by measuring relative RhoA-GTP level at 30 uM incubated for 24 hrs by densitometry (reference value: 1); format: cell-based
[17] = target: T2, RhoGEF 1/Transforming protein RhoA (Homo sapiens); assay: Binding affinity to human LARG (765 to 1138 residues) DH-PH module expressed in mouse NIH/3T3 cells assessed as reduction in LARG binding to human full length RhoA (1 to 193 residues) by measuring relative LARG binding level at 30 uM pull-down assay (reference value: 1 No unit); format: cell-based
[18] = organism: Mus musculus; assay: Inhibition of RhoGEF in mouse NIH/3T3 cells assessed as inhibition of 10% calf serum-induced RhoA-GTP formation by measuring reduction in RhoA-GTP level at 30 uM incubated for 24 hrs by densitometry relative to control; format: cell-based
[19] = test system: MCF7; assay: Inhibition of RhoGEF in human MCF7 cells derived mammospheres assessed as inhibition of 10% calf serum-induced RhoA-GTP formation at 10 uM incubated for 24 hrs by densitometry relative to control; format: cell-based
[20] = organism: Mus musculus; assay: Inhibition of RhoGEF in mouse NIH/3T3 cells assessed as inhibition of 10% calf serum-induced Cdc42-GTP formation by measuring relative Cdc42-GTP level at 50 uM incubated for 24 hrs by densitometry (reference value: 1); format: cell-based
[21] = target: T1, Rho guanine nucleotide exchange factor 12; assay: Inhibition of human LARG (765 to 1138 residues) RhoGEF binding to human full length RhoA (1 to 193 residues)
[22] = test system: MCF7; assay: Inhibition of RhoGEF in human MCF7 cells derived mammospheres assessed as inhibition of RhoA-mediated phospho-MLC formation incubated for 24 hrs by densitometry; format: cell-based
[23] = target: T2, RhoGEF 1/Transforming protein RhoA (Homo sapiens); assay: Binding affinity to human LARG (765 to 1138 residues) DH-PH module expressed in mouse NIH/3T3 cells assessed as reduction in LARG binding to human full length RhoA (1 to 193 residues) by measuring relative LARG binding level at 10 uM pull-down assay (reference value: 1 No unit); format: cell-based
[24] = organism: Mus musculus; assay: Inhibition of RhoGEF in mouse NIH/3T3 cells assessed as inhibition of 10% calf serum-induced RhoA-GTP formation by measuring relative RhoA-GTP level at 50 uM incubated for 24 hrs by densitometry (reference value: 1); format: cell-based
[25] = test system: MCF7; assay: Inhibition of RhoGEF in human MCF7 cells derived mammospheres assessed as inhibition of 10% calf serum-induced RhoA-GTP formation by measuring relative RhoA-GTP level at 5 uM incubated for 24 hrs by densitometry (reference value: 1); format: cell-based

O=C(O)C1Nc2c(Cl)cc(Cl)cc2C2C=CCC12 (centres undefined)
inhibition [1]: Dose-dependent effect
inhibition [2]: Dose-dependent effect

O=C1NN(c2ccccc2)C(=O)/C1=C\C1=NCc2ccccc21
inhibition [3]: 6.57%

N[C@H](Cc1c[nH]c2ccccc12)C(=O)N/N=C/c1ccc2nccnc2c1
inhibition [4]: Active
growth inhibition (GI) [5]: Active
fold change (FC) [6]: 0.38
fold change (FC) [7]: 0.15
inhibition [8]: Dose-dependent effect
fold change (FC) [9]: 0.65
inhibition [10]: 50%
fold change (FC) [11]: 0.7
inhibition [12]: Active
fold change (FC) [13]: 0.89
fold change (FC) [14]: 0.92
inhibition [15]: Active
fold change (FC) [16]: 0.32
fold change (FC) [17]: 0.45
inhibition [18]: 80%
inhibition [19]: 50%
fold change (FC) [20]: 0.96
IC50 [21]: 10 µM
inhibition [22]: Dose-dependent effect
fold change (FC) [23]: 0.63
fold change (FC) [24]: 0.19
fold change (FC) [25]: 0.98

O=C1NN(c2ccccc2)C(=O)/C1=C/c1ccc(OCc2ccccc2)cc1
inhibition [3]: 27.1%

COc1cc(/C=C2/C(=O)NN(c3ccccc3)C2=O)cc(Br)c1OCCOc1ccc(C)cc1
inhibition [3]: 13.8%

O=C1/C(=C\c2ccccc2OCc2ccccc2)CNN1c1ccc(Br)cc1
inhibition [3]: 7.34%

COc1cc(/C=C2/C(=O)NN(c3ccccc3)C2=O)ccc1O
inhibition [3]: 13%
